Experimental data reported in patent publication US20260234107A1, “TRYPTAMINES AND METHODS OF TREATING MOOD DISORDERS” (priority 2022, published 2026).
Like-named read-outs stand apart in the source and are kept apart here.

Tests used:
[1] = system: monoamine oxidase A and B (MAO-A and MAO-B); test: Stability in the presence of monoamine oxidases (human liver mitochondria preparation); design: half-life / microsomal CLint: dose or concentration left out as unconfirmed; details: for stability in the presence of MAO (in words): human liver mitochondria preparation; for Remaining (t = 60 min) / half-life / microsomal CLint: human liver mitochondria; for half-life / microsomal CLint: human, pH 7.4; for CLint(MAO) / t1/2: human liver mitochondria 0.30 mg protein/mL, 37° C.
Procedure: Liver Mitochondria Incubations. Human liver mitochondria (Xenotech H0610.M) were used.

[2] = Stability in mouse brain homogenate; format: in vitro ADME, male CD-1 mice; details: mouse brain homogenate, 1 μM, 37° C.; for half-life at 1 µM: male, CD-1
Procedure: Disclosed compounds were tested for stability in mouse brain homogenate (Table 7). There was widely variable stability among the test compounds under the conditions of the experiment.
(§1) Mouse Brain Homogenate Stability. Frozen mouse brain homogenate (pooled from male CD-1 mice, BioreclamationIVT, MSE00BRAINMZA) was thawed in a water bath at 37° C. immediately prior to use. Positive controls and test compounds (final concentration in incubation medium=1 μM for test compounds and 2 μM for controls, all with 2% DMSO) were incubated in duplicate for each time point (0, 10, 30, 60, and 120 min) in the mouse brain homogenate at a total reaction volume of 100 μL at 37° C. At the end of each incubation period, reactions were immediately quenched with 400 μL of acetonitrile containing internal standard (200 ng/mL tolbutamine and 200 ng/mL labetalol) and mixed thoroughly. Plates were then sealed, shaken for 20 min, and centrifuged at 4,000 rpm and 4° C. for 20 min. Aliquots of 50 μL of each supernatant were diluted into 100 μL of water and the mixtures were then shaken again for 10 min.

[3] = Stability in rat brain homogenate; format: in vitro ADME, male Sprague Dawley rats; details: rat brain homogenate, 1 μM, 37° C.; for half-life at 1 µM: male, Sprague Dawley
Procedure: Disclosed compounds were tested for stability in rat brain homogenate (Table 8). There was widely variable stability among the test compounds under the conditions of the experiment.
as §1, with “Rat” for “Mouse”, “rat” for “mouse”, “Sprague Dawley rats,” for “CD-1 mice,”, “RAT00BRAINMZA)” for “MSE00BRAINMZA)”

[4] = Metabolic stability in human liver microsomes (HLM); design: microsomal CLint / half-life: dose or concentration left out as unconfirmed; details: both, human, pooled human liver microsomes, pH 7.4
[5] = Plasma pharmacokinetics in rats after intravenous administration; details: for AUC(0-t) / C0 / half-life: male, Sprague Dawley, rat, plasma, iv, 1 mg/kg; for plasma half-life (in words): rats, IV 1 mg/kg
5-HT1A = biological target: T1, 5-HT1A (Homo sapiens, UniProt P08908); test: FLIPR Ca2+ flux agonist assay at 5-HT1A; format: cell-based
T1 construct: host or cells: CHO cells
T1 sequence (P08908 1-422): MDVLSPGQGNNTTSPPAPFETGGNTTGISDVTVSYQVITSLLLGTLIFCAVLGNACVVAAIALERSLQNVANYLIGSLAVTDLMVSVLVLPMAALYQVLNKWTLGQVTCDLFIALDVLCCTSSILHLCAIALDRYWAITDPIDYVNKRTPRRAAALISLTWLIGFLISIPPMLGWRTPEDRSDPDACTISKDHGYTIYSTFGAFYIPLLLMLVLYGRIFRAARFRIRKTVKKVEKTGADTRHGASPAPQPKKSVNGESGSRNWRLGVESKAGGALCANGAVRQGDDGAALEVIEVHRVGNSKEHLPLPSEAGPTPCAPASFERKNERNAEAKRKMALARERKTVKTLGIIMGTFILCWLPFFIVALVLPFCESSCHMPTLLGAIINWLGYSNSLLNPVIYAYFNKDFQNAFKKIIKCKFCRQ
Procedure: (§2) A solution of 250 mM probenecid in 1 mL FLIPR assay buffer was prepared fresh. This was combined with a fluorescent dye (Fluo-4 Direct™) to make a final assay concentration of 2.5 mM. […] The fluorescent dye was then added to the assay plate along with assay buffer to a final volume of 40 μL. The cell plate was incubated for 50 min at 37° C. and 5% CO2 and placed into the FLIPR Tetra along with the compound plate. 10 μL of references and compounds were then transferred from the compound plate into the cell plate and the fluorescent signal was read.

rat synaptosomes = test: Serotonin (5-HT) release from rat synaptosomes; format: biochemical, Male Sprague-Dawley rats; details: for EC50: rat synaptosomes preloaded with [3H]5-HT; for % Release @ Max Dose (10 μM): rat synaptosomes
Procedure: Disclosed compounds were assessed for their ability to release serotonin (5-HT) from […] (Table 9). Potency and efficacy for 5-HT release varied substantially depending on the specific compound. […] However, there was also substantial variability among 4-hydroxy compounds.
Synaptosome 5-HT Release Assay. Synaptosome release assays were conducted according to modifications of previously described procedures (Partilla et al. (2016). Interrogating the Activity of Ligands at Monoamine Transporters in Rat Brain Synaptosomes. In Neurotransmitter Transporters (pp. 41-52). Springer.). Briefly, synaptosomes were prepared from rat brains. Male Sprague-Dawley rats were rendered unconscious with CO2 and their brains were immediately removed. The cerebella were discarded and the whole brains (minus striatum) were placed in ice-cold 0.32 M sucrose (10 mL per brain) and gently homogenized by hand. The homogenate of each brain was centrifuged at 1,000×g at 4° C. for 10 mins and the resulting supernatant was diluted with ice-cold 0.32 M sucrose to a total volume of 10 mL to provide the synaptosome solution. Synaptosomes were then preloaded with 5 nM [^3H]5-HT in the presence of selective uptake inhibitors of DAT (50 nM GBR12935), NET (100 nM nomifensine), and VMAT2 (1 μM reserpine) in Krebs phosphate buffer (KPB). The incubations were allowed to reach equilibrium for 2 h at 25° C. For the release reactions, 425 μL of preloaded synaptosomes were added to test tubes containing 75 μL of test drugs diluted in KPB containing 1 mg/mL BSA. After 10 mins, the release reaction was stopped using a cell harvester by rapid vacuum filtration over GF/B filter paper presoaked in wash buffer (10 mM Tris-HCl, pH 7.4, 150 mM NaCl) and the filters were washed with additional wash buffer. Filters were dried for 1 h at 60° C. and retained radioactivity was quantified using a MicroBeta 2 liquid scintillation counter. The amount of retained radioactivity was inversely proportional to the extent of release.

5-HT2B = biological target: T2, 5-HT2B (Homo sapiens, UniProt P41595); test: FLIPR Ca2+ flux agonist assay at 5-HT2B; format: cell-based; details: Ca2+ flux
T2 construct: host or cells: HEK293
T2 sequence (P41595 whole entry, species assumed): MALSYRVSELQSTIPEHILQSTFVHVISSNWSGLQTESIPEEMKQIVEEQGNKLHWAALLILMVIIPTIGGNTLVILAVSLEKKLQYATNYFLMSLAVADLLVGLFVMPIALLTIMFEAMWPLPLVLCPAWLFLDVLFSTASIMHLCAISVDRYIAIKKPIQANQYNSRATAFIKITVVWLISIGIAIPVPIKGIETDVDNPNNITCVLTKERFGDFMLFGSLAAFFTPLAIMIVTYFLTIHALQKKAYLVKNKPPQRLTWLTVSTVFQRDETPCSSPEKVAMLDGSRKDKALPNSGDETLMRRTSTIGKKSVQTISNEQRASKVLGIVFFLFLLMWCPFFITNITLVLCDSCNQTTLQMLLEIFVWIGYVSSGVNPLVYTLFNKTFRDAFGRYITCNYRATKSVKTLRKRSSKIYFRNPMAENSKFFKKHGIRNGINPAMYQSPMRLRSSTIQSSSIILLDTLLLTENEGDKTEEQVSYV
Procedure: as §2

5-HT2C receptor = biological target: T3, 5-HT2C receptor (Homo sapiens, UniProt P28335); test: cell-based; format: cell-based; details: Ca2+ flux
T3 sequence (P28335 33-458): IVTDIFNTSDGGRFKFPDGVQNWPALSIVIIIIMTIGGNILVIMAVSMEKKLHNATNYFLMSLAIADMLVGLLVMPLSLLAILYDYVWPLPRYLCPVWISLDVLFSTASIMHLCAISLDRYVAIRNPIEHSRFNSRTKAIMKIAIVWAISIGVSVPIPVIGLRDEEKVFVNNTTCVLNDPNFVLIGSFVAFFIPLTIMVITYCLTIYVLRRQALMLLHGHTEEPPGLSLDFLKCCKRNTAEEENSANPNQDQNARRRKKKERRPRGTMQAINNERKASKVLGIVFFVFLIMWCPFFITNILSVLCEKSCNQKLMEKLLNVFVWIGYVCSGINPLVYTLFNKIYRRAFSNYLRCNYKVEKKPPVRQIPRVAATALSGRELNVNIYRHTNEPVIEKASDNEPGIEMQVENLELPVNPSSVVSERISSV

5-HT2A = 5-HT2A (Homo sapiens, UniProt P28223); test: FLIPR Ca2+ flux agonist assay at 5-HT2A; format: cell-based; design: host or cells: HEK293; details: Ca2+ flux, HEK293; read-out: 5-HT2A EC50
Sequence of 5-HT2A (P28223 whole entry): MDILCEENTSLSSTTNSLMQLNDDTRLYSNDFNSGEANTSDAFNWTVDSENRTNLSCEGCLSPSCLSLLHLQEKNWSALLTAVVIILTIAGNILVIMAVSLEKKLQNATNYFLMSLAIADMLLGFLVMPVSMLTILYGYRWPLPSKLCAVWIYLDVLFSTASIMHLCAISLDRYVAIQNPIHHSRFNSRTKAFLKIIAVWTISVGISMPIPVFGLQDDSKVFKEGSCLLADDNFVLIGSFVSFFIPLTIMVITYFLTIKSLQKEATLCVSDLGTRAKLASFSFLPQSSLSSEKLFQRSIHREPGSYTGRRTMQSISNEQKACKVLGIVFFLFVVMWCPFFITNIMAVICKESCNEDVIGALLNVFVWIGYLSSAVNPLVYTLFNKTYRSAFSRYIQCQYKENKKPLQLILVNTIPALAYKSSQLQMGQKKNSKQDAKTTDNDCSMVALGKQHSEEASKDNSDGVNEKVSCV
Procedure: as §2

SMILES | stability in the presence of MAO (in words) [1] | Remaining (t = 60 min) [1] | half-life [1] | microsomal CLint [1] | half-life at 1 µM [2] | % Compound Remaining (after 120 min) [2] | half-life at 1 µM [3] | % Compound Remaining (after 120 min) [3] | half-life [4] | microsomal CLint [4] | AUC(0-t) [5] | C0 [5] | half-life [5] | 5-HT1A % Act @ Max Dose (5-HT1A; Ca2+ flux, CHO cells) | EC50 (rat synaptosomes) | % Release @ Max Dose (10 μM) (rat synaptosomes) | CLint(MAO) [1] | t1/2 [1] | also measured
CNCCc1c[nH]c2cccc(O)c12 [Compound 2, 3-(2-(methylamino)ethyl)-1H-indol-4-ol] | highly unstable | 12.8% | 0.312 h | 124 µL/min/mg | 0.233 h | 0.2% | 0.105 h | 0.2% | 0.22 h | 105 µL/min/mg | 21 ng·h/mL | 185 ng/mL | 0.18 h | – | – | – | – | – | plasma half-life (in words) [5]: very short half-lives
CCCNCCc1c[nH]c2cccc(O)c12 [Compound 3, 3-(2-(propylamino)ethyl)-1H-indol-4-ol] | highly stable | 97.3% | > 2.42 h | < 15.9 µL/min/mg | 1.21 h | 29.2% | 2.28 h | 52.5% | 1.99 h | 11.6 µL/min/mg | – | – | – | 10.7% | > 10000 nM | 36.06% | – | – | EC50 (5-HT1A): 33100 nM
CCNCCc1c[nH]c2cccc(O)c12 [Compound 5, 3-(2-(ethylamino)ethyl)-1H-indol-4-ol] | – | 76.2% | > 2.42 h | < 15.9 µL/min/mg | 3.06 h | 67.2% | 2.63 h | 61.5% | > 2.42 h | < 9.6 µL/min/mg | 161 ng·h/mL | 350 ng/mL | 0.65 h | – | 4060 nM | 53.8% | – | – | –
CC(C)NCCc1c[nH]c2cccc(O)c12 [Compound 6, 3-(2-(isopropylamino)ethyl)-1H-indol-4-ol] | – | 80.5% | > 2.42 h | < 15.9 µL/min/mg | 2.71 h | 62.6% | 2.27 h | 53.8% | > 2.42 h | < 9.6 µL/min/mg | – | – | – | 10.15% | > 10000 nM | 32.8% | – | – | EC50 (5-HT1A): > 100000 nM
CN(C)CCc1c[nH]c2ccccc12 [DMT, N,N-dimethyltryptamine, reference compound] | rapidly metabolized by MAO | 8.9% | – | – | – | 0.0% | – | 0.0% | – | – | – | – | – | – | 80.8 nM | 80.77% | 134.9 µL/min/mg | 0.285 h | t1/2 [2]: 0.107 h; t1/2 [3]: 0.085 h
CCCN(CC)CCc1c[nH]c2ccccc12 [EPT, N-ethyl-N-propyltryptamine, reference compound] | more stable | 95.1% | – | – | – | – | – | – | – | – | – | – | – | 75.5% | 264 nM | 45.02% | <15.9 µL/min/mg | >2.42 h | 5-HT2B % Act @ Max Dose (5-HT2B; HEK293, max dose): 80.4%; EC50 (5-HT2B; HEK293, ND = not determined due to lack of measurable agonism, read-out: 5-HT2B EC50): 40.3 nM; EC50 (5-HT2C receptor): 33.4 nM; 5-HT2C % Act @ Max Dose (5-HT2C receptor; max dose): 90.8%; EC50 (5-HT1A; Ca2+ flux, CHO cells, ND = not determined due to lack of measurable agonism, read-out: 5-HT1A EC50): 88700 nM; EC50 (5-HT2A): 30.5 nM
CN(C)CCc1c[nH]c2cccc(O)c12 [Psilocin, psilocin, reference compound] | stable | 112.1% | – | – | – | 97.6% | – | 46.1% | – | – | 146 ng·h/mL | 179 ng/mL | 1.56 h | 0.720% | – | – | <15.9 µL/min/mg | >2.42 h | t1/2 [2]: >4.818 h; t1/2 [3]: 1.913 h; plasma half-life (in words) [5]: much longer half-lives
